Measured values: the supplement of paper PMC10883282
± gives the standard deviation of the averaged measurements.

Test system: VA-ES-BJ
Assay: relative viability vs DMSO control (72 h) (fraction); higher = more viable cells
In short: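 Densities for seeding sarcoma cell lines into 384-well plates were set to give 80–90% confluence. After 24 h, 2.5 µl of serially diluted compound from source plates of 10 mM to 0.0002 mM went in, and plates stayed 72 h at 37 °C in 5% CO2 with 0.1% DMSO vehicle and a 5 µM positive control. Percent growth from ATPLite readings, averaged over up to triplicate wells, served as relative viability, rescaled so 1 means full and 0 means none.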

SMILES | relative viability (0.00017 µM) | relative viability (0.00051 µM) | relative viability (0.00152 µM) | relative viability (0.00457 µM) | relative viability (0.01372 µM) | relative viability (0.04115 µM) | relative viability (0.1235 µM) | relative viability (0.3704 µM) | relative viability (1.111 µM) | relative viability (3.333 µM) | relative viability (10 µM)
Cc1cc(C)c(/C=C2\C(=O)Nc3ccccc32)[nH]1 [Semaxanib] | 0.973 ± 0.027 | 0.969 ± 0.045 | 0.969 ± 0.039 | 0.97 ± 0.023 | 0.948 ± 0.016 | 0.914 ± 0.014 | 0.922 ± 0.021 | 0.901 ± 0.048 | 0.889 ± 0.043 | 0.902 ± 0.016 | 0.855 ± 0.078
O=C(Nc1cnn2ccc(N3CCC[C@@H]3c3cc(F)ccc3F)nc12)N1CC[C@H](O)C1 [Larotrectinib] | 1.05 ± 0.058 | 1.07 ± 0.037 | 1.04 ± 0.04 | 1.06 ± 0.044 | 1.04 ± 0.017 | 1.02 ± 0.046 | 1 ± 0.04 | 0.99 ± 0.022 | 1.02 ± 0.036 | 0.989 ± 0.043 | 0.994 ± 0.043
C=CC(=O)N1CCC[C@@H](n2nc(-c3ccc(Oc4ccccc4)cc3)c3c(N)ncnc32)C1 [Ibrutinib] | 1.09 ± 0.046 | 1.08 ± 0.035 | 1.08 ± 0.089 | 1.06 ± 0.026 | 1.08 ± 0.05 | 1.09 ± 0.044 | 1.07 ± 0.068 | 1.07 ± 0.092 | 1.13 ± 0.056 | 1.1 ± 0.036 | 0.989 ± 0.013
CC(C)N1CCN(Cc2cnc(-c3cc(-c4cccc5[nH]ccc45)cc4[nH]ncc34)o2)CC1 [Nemiralisib] | 0.985 ± 0.032 | 0.987 ± 0.045 | 0.981 ± 0.047 | 1.01 ± 0.04 | 0.96 ± 0.026 | 0.965 ± 0.041 | 0.982 ± 0.038 | 0.9285 ± 0.0062 | 0.901 ± 0.049 | 0.811 ± 0.017 | 0.655 ± 0.038
CN1CCN(c2ccc3nc(-c4c(N)c5c(F)cccc5[nH]c4=O)[nH]c3c2)CC1 [Dovitinib] | 1.06 ± 0.027 | 1.06 ± 0.028 | 1.08 ± 0.044 | 1.08 ± 0.028 | 1.07 ± 0.029 | 1.06 ± 0.031 | 1.05 ± 0.025 | 0.956 ± 0.0053 | 0.738 ± 0.049 | 0.495 ± 0.021 | 0.313 ± 0.039
COc1c(OCCCN2CCOCC2)ccc2c1N=C(NC(=O)c1cnc(N)nc1)N1CCN=C21 [Copanlisib] | 1.09 ± 0.027 | 0.983 ± 0.071 | 1.066 ± 0.0069 | 0.74 ± 0.026 | 0.594 ± 0.029 | 0.484 ± 0.017 | 0.42 ± 0.022 | 0.396 ± 0.041 | 0.406 ± 0.019 | 0.394 ± 0.095 | 0.304 ± 0.16
CNC(=O)c1ccc(-c2cnc3ncc(Cc4ccc5ncccc5c4)n3n2)cc1F [Capmatinib] | 1.06 ± 0.068 | 1.03 ± 0.042 | 1.01 ± 0.062 | 0.943 ± 0.04 | 0.87 ± 0.016 | 0.844 ± 0.03 | 0.839 ± 0.01 | 0.844 ± 0.017 | 0.878 ± 0.059 | 0.88 ± 0.035 | 0.855 ± 0.036
Cn1cc(-c2cc3c(N4CCN(c5ncc([C@@](C)(N)c6ccc(F)cc6)cn5)CC4)ncnn3c2)cn1 [Avapritinib] | 1.02 ± 0.013 | 1.01 ± 0.025 | 1 ± 0.013 | 1.01 ± 0.03 | 0.998 ± 0.057 | 0.993 ± 0.023 | 0.971 ± 0.039 | 0.98 ± 0.031 | 0.975 ± 0.011 | 0.956 ± 0.034 | 0.979 ± 0.028
CCCS(=O)(=O)Nc1ccc(F)c(C(=O)c2c[nH]c3ncc(-c4ccc(Cl)cc4)cc23)c1F [Vemurafenib] | 1.09 ± 0.048 | 1.08 ± 0.058 | 1.04 ± 0.063 | 1.06 ± 0.039 | 1.074 ± 0.0083 | 1.06 ± 0.042 | 1.09 ± 0.017 | 1.12 ± 0.056 | 1.12 ± 0.043 | 1.02 ± 0.042 | 0.769 ± 0.03
CC1(C)CNc2cc(NC(=O)c3cccnc3NCc3ccncc3)ccc21 [Motesanib] | 0.98 ± 0.021 | 0.982 ± 0.018 | 0.976 ± 0.041 | 1 ± 0.03 | 0.9877 ± 0.0081 | 1 ± 0.017 | 1.011 ± 0.0069 | 1.02 ± 0.022 | 1.04 ± 0.042 | 1.04 ± 0.024 | 1.03 ± 0.029
C=CC(=O)Nc1cccc(Oc2nc(Nc3ccc(N4CCN(C)CC4)cc3)nc3ccsc23)c1 [Olmutinib] | 1.01 ± 0.052 | 1.01 ± 0.029 | 1.01 ± 0.029 | 1.01 ± 0.027 | 1.02 ± 0.043 | 1 ± 0.039 | 0.996 ± 0.052 | 0.96 ± 0.065 | 0.905 ± 0.06 | 0.786 ± 0.038 | 0.534 ± 0.013
COc1cc2nccc(Oc3ccc(NC(=O)Nc4cc(C)on4)c(Cl)c3)c2cc1OC [Tivozanib] | 1.04 ± 0.022 | 1.07 ± 0.017 | 1.05 ± 0.019 | 1.05 ± 0.025 | 1.05 ± 0.026 | 1.05 ± 0.028 | 1.1 ± 0.04 | 1.14 ± 0.048 | 1.16 ± 0.1 | 1.16 ± 0.12 | 0.812 ± 0.065
CNC(=O)c1cc(Oc2ccc(NC(=O)Nc3ccc(Cl)c(C(F)(F)F)c3)c(F)c2)ccn1 [Regorafenib] | 1.13 ± 0.018 | 1.15 ± 0.032 | 1.1 ± 0.019 | 1.083 ± 0.0058 | 1.11 ± 0.035 | 1.08 ± 0.023 | 1.18 ± 0.048 | 1.19 ± 0.08 | 1.21 ± 0.072 | 1.24 ± 0.12 | 0.684 ± 0.048
Cc1ccc(F)c(NC(=O)Nc2ccc(-c3cccc4[nH]nc(N)c34)cc2)c1 [Linifanib] | 1.05 ± 0.022 | 1.07 ± 0.041 | 1.06 ± 0.03 | 1.07 ± 0.056 | 1.05 ± 0.025 | 1.08 ± 0.059 | 1.07 ± 0.046 | 1.06 ± 0.056 | 1.11 ± 0.063 | 1.11 ± 0.035 | 1.03 ± 0.047
Cc1cnc(Nc2ccc(OCCN3CCCC3)cc2)nc1Nc1cccc(S(=O)(=O)NC(C)(C)C)c1 [Fedratinib] | 1.06 ± 0.042 | 1.08 ± 0.013 | 1.03 ± 0.023 | 1.05 ± 0.021 | 1.04 ± 0.013 | 1 ± 0.037 | 1.02 ± 0.032 | 0.781 ± 0.018 | 0.403 ± 0.019 | 0.152 ± 0.0076 | -0.0115 ± 0.0047
C=CC(=O)N1CCC([C@@H]2CCNc3c(C(N)=O)c(-c4ccc(Oc5ccccc5)cc4)nn32)CC1 [Zanubrutinib] | 1.02 ± 0.011 | 1.01 ± 0.012 | 1.01 ± 0.03 | 0.996 ± 0.039 | 0.982 ± 0.029 | 1.04 ± 0.028 | 0.997 ± 0.047 | 0.998 ± 0.054 | 0.95 ± 0.025 | 0.912 ± 0.048 | 0.836 ± 0.013
CN1CCC(COc2cnc(-c3cccc(Cn4nc(-c5cccc(C#N)c5)ccc4=O)c3)nc2)CC1 [Tepotinib] | 1.07 ± 0.019 | 1.06 ± 0.021 | 1.02 ± 0.033 | 1.05 ± 0.044 | 1.02 ± 0.023 | 0.943 ± 0.044 | 0.869 ± 0.021 | 0.866 ± 0.04 | 0.869 ± 0.067 | 0.845 ± 0.045 | 0.869 ± 0.041
Cc1nc(NC(=O)N2CCC[C@H]2C(N)=O)sc1-c1ccnc(C(C)(C)C(F)(F)F)c1 [Alpelisib] | 1.062 ± 0.0069 | 1.03 ± 0.048 | 1.03 ± 0.022 | 0.992 ± 0.054 | 0.981 ± 0.04 | 0.94 ± 0.045 | 0.924 ± 0.045 | 0.833 ± 0.019 | 0.741 ± 0.021 | 0.61 ± 0.01 | 0.378 ± 0.011
